Tested on: UACC 903 melanoma cells
Assay: Thermal stability in DMSO at 60° C., efficacy by MTS assay
Conditions: DMSO solution

Structure (SMILES)	heating time acceptable without decreasing efficacy [min]	effect of prolonged exposure to 60° C. on compound activity
Cc1ccc(-c2cc(C(F)(F)F)nn2-c2ccc(S(N)(=O)=O)cc2)cc1 [celecoxib, 4-[5-(4-Methylphenyl)-3-(trifluoromethyl)-1H-pyrazol-1-yl]benzenesulfonamide]	≤ 20	
CC1=CC(=O)c2c(O)cccc2C1=O [plumbagin, 5-hydroxy-2-methyl-1,4-napthoquinone]		did not affect compound activity

Reference: US10010504B2, “Compositions and methods including celecoxib and plumbagin relating to treatment of cancer” (The Penn State Research Foundation, priority 2013, dated 2018)
